Test results taken from patent publication US20030199694A1, “Thermally stable trimetrexates and processes for producing the same” (MedImmune Oncology, Inc., priority 1998, published 2003).
Each block holds one molecule with its values, some of them ahead of it.

Key:
[1] = Thermal stability of TMH relative to anhydrous trimetrexate: storage at 25° C. or 50° C., HPLC assay, impurities and moisture; assay type: physicochemical
Description: Samples of trimetrexate monohydrate and anhydrous trimetrexate were analyzed to compare the thermal stability of anhydrous trimetrexate with the trimetrexate monohydrate of the present invention. Anhydrous trimetrexate was prepared by dehydrating trimetrexate monohydrate. A sample of trimetrexate monohydrate (about 30 g) was placed in a Petri dish and dried in a vacuum dessicator over phosphorus pentoxide. The sample was dried at a pressure of about 100 microns for 6 days. The following procedure was used to assay the purity of trimetrexate monohydrate and anhydrous trimetrexate samples. Samples of the compounds were analyzed by HPLC. The mobile phase is prepared by first dissolving 5 g of sodium dodecyl sulfate (Aldrich 86,201-0 or equivalent) in 1100 mL water and adjusting the pH to 3.0 with glacial acetic acid (about 5 mL). 825 mL of HPLC grade acetonitrile is then added, and the solution mixed thoroughly, while avoiding excessive foaming. The unfiltered solution is then degassed by sonicating for 5 minutes. The solution is degassed immediately before use, and at the beginning of each day. Duplicate standard solutions are prepared with a trimetrexate reference compound at a concentration of 0.2 mg/mL in the mobile phase solution (“STD-1” and “STD-2”). The standard solutions are stored under refrigeration when not in use, and fresh solutions are prepared daily. Sample solutions of anhydrous trimetrexate and trimetrexate monohydrate are also prepared at 0.2 mg/mL in the mobile phase solution. The system is checked before testing the sample solutions by analyzing the reproducibility of trimetrexate peak area measurements for six injections of the standard trimetrexate solution (STD-1), trimetrexate peak symmetry, and agreement between the duplicate standard preparations. The acceptance criteria are as follows: For assay data, the HPLC operating parameters are as follows: [table] For the determination of impurities, the operating parameters are as before, except that the run time is extended to 30 minutes to detect all possible impurities and/or degradation products, and an attenuation of 32 is used. A mobile phase blank is first run, followed by a sample solution. Purity (%w/w)=[(mg found×100%)+mg sample weighed)]×[…] Peak Area (%)=[peak area (imp)÷(Σpeak area (all impurities+TMTX))]×100. Samples of the anhydrous and monohydrate compounds were initially assayed for purity and moisture content. The samples were stored for 4 weeks at either 25° C. or 50° C. HPLC chromatograms were recorded for the samples stored at each temperature after 3 days, 1 week, 2 weeks and 4 weeks of storage, and the samples assayed at each time interval for purity, impurities and water content. […] The peak at about 13 minutes corresponds to the non-degraded compound; this peak is truncated in the Figure in order to expand the y-axis to view the impurities. […] The “amine” entry in Table 9 corresponds to the amine degradation product which is prominent in FIG. 7 as the large peak at about 20 minutes in the anhydrous sample. This degradation product was isolated and identified as 6-aminomethyl-5-methyl-2,4-quinazolinediamine. It is a pale yellow powder, with a molecular formula of C10H13N5 and a formula weight of 203.25 g/mol. The structure of the compound is shown below [drawing 11]

[2] = cited from earlier work
[3] = tested on: murine cell lines such as L1210, L5178Y, S-180, W-256; details: cited from earlier work
[4] = tested on: human tumor cells lines derived from breast, colon, lung, ovary, renal and melanoma cells; details: human tumor cell lines from breast; cited from earlier work
[5] = tested on: murine tumors such as B16 melanoma, colon 26 and 38, L1210 and p388 leukemia and CD8F mammary tumors; details: cited from earlier work
[6] = Hygroscopicity; assay type: physicochemical
[7] = at 37° C.; cited from earlier work
[8] = stored at 25° C., 1 week, monohydrate
[9] = stored at 25° C., 2 weeks, monohydrate
[10] = stored at 25° C., 4 weeks, monohydrate
[11] = stored at 25° C., 3 days, monohydrate
[12] = stored at 50° C., 1 week, monohydrate
[13] = stored at 50° C., 2 weeks, monohydrate
[14] = stored at 50° C., 4 weeks, monohydrate
[15] = stored at 50° C., 3 days, monohydrate

% Moisture ([1]; Initial): 0.1%
Assay ([1]; Initial, before storage, HPLC purity): 98.5 w/w
Total Impurities ([1]; Initial, HPLC): 0.3 % area
Amine ([1]; Initial, degradation product 6-aminomethyl-5-methyl-2,4-quinazolinediamine, HPLC): 0.2 % area
% Moisture ([1]; stored at 25° C., 1 week): 0.4%
Amine ([1]; stored at 25° C., 1 week): 0.3 % area
Assay ([1]; stored at 25° C., 1 week): 96.6 w/w
Total Impurities ([1]; stored at 25° C., 1 week): 0.4 % area
% Moisture ([1]; stored at 25° C., 2 weeks): 0.2%
Amine ([1]; stored at 25° C., 2 weeks): 0.4 % area
Assay ([1]; stored at 25° C., 2 weeks): 98.4 w/w
Total Impurities ([1]; stored at 25° C., 2 weeks): 0.5 % area
% Moisture ([1]; stored at 25° C., 4 weeks): <0.1%
Amine ([1]; stored at 25° C., 4 weeks): 0.8 % area
Assay ([1]; stored at 25° C., 4 weeks): 97.6 w/w
Total Impurities ([1]; stored at 25° C., 4 weeks): 1.0 % area
% Moisture ([1]; stored at 25° C., 3 days): 0.3%
Amine ([1]; stored at 25° C., 3 days): 0.2 % area
Assay ([1]; stored at 25° C., 3 days): 100.4 w/w
Total Impurities ([1]; stored at 25° C., 3 days): 0.4 % area
% Moisture ([1]; stored at 50° C., 1 week): 0.7%
Amine ([1]; stored at 50° C., 1 week): 0.7 % area
Assay ([1]; stored at 50° C., 1 week): 95.0 w/w
Total Impurities ([1]; stored at 50° C., 1 week): 1.2 % area
% Moisture ([1]; stored at 50° C., 2 weeks): 0.3%
Amine ([1]; stored at 50° C., 2 weeks): 1.4 % area
Assay ([1]; stored at 50° C., 2 weeks): 95.8 w/w
Total Impurities ([1]; stored at 50° C., 2 weeks): 2.1 % area
% Moisture ([1]; stored at 50° C., 4 weeks): <0.1%
Amine ([1]; stored at 50° C., 4 weeks): 2.9 % area
Assay ([1]; stored at 50° C., 4 weeks): 92.7 w/w
Total Impurities ([1]; stored at 50° C., 4 weeks): 4.5 % area
% Moisture ([1]; stored at 50° C., 3 days): 0.4%
Amine ([1]; stored at 50° C., 3 days): 0.4 % area
Assay ([1]; stored at 50° C., 3 days): 99.5 w/w
Total Impurities ([1]; stored at 50° C., 3 days): 0.7 % area
Compound: COc1cc(NCc2ccc3nc(N)nc(N)c3c2C)cc(OC)c1OC [Anhydrous, 2,4-diamino-5-methyl-6-[(3,4,5-trimethoxyanilino)methyl] quinazoline]
water solubility [2]: < 0.1 mg/mL
antitumor activity in vitro [3]: antitumor activity
antitumor activity in vitro [4]: antitumor activity
therapeutic utility in vivo [5]: therapeutic utility

Assay ([1]; Initial, before storage, HPLC purity, monohydrate): 99.6 w/w
Total Impurities ([1]; Initial, HPLC, monohydrate): 0.2 % area
Amine ([1]; Initial, degradation product 6-aminomethyl-5-methyl-2,4-quinazolinediamine, HPLC, monohydrate): 0.1 % area
% Moisture ([1]; Initial, monohydrate): 4.9%
degradation products in HPLC chromatogram ([1]; after 4 weeks at 50° C., FIG. 7): no significant degradation products
% Moisture [1, 8]: 4.5%
Amine [1, 8]: 0.1 % area
Assay [1, 8]: 96.3 w/w
Total Impurities [1, 8]: 0.1 % area
% Moisture [1, 9]: 4.9%
Amine [1, 9]: 0.1 % area
Assay [1, 9]: 99.4 w/w
Total Impurities [1, 9]: 0.1 % area
% Moisture [1, 10]: 4.3%
Amine [1, 10]: 0.1 % area
Assay [1, 10]: 99.6 w/w
Total Impurities [1, 10]: 0.3 % area
% Moisture [1, 11]: 4.7%
Amine [1, 11]: 0.1 % area
Assay [1, 11]: 101.4 w/w
Total Impurities [1, 11]: 0.2 % area
% Moisture [1, 12]: 4.6%
Amine [1, 12]: 0.1 % area
Assay [1, 12]: 98.6 w/w
Total Impurities [1, 12]: 0.2 % area
% Moisture [1, 13]: 4.8%
Amine [1, 13]: 0.1 % area
Assay [1, 13]: 98.7 w/w
Total Impurities [1, 13]: 0.1 % area
% Moisture [1, 14]: 4.4%
Amine [1, 14]: 0.2 % area
Assay [1, 14]: 99.6 w/w
Total Impurities [1, 14]: 0.3 % area
% Moisture [1, 15]: 4.7%
Amine [1, 15]: 0.1 % area
Assay [1, 15]: 99.4 w/w
Total Impurities [1, 15]: 0.3 % area
hygroscopicity [6]: non-hygroscopic
Compound: COc1cc(NCc2ccc3nc(N)nc(N)c3c2C)cc(OC)c1OC [Monohydrate, trimetrexate monohydrate]

Compound: COc1cc(NCc2ccc3nc(N)nc(N)c3c2C)cc(OC)c1OC.O=C(O)[C@H]1O[C@H](O)[C@H](O)[C@@H](O)[C@@H]1O [trimetrexate glucuronate]
water solubility [2]: > 50 mg/mL
half-life in solution [7]: 51.6 ± 0.8 days
